# Assays:
# [1] = system: HL7702 cells with PPM1B shRNA; assay: Western blot of protein phosphorylation in PPM1B knockdown cells with HN252; conditions: HN252 5 μM, 2 h, at 30 h after transfection
# Protocol: Cells were lysed in lysis buffer (50 mM Tris‐HCl, 150 mM NaCl, 0.1% SDS, 1% NP‐40, 0.5% deoxycholate, pH 7.4), supplemented with protease inhibitor (Roche) and phosphatase inhibitor cocktails (Roche). Protein samples were separated by SDS‐PAGE and wet‐transferred to PVDF membranes (Millipore). The membrane was blocked for 1 h in 5% BSA in TBST at room temperature and probed with the appropriate primary antibodies and with an HRP‐conjugated secondary antibody.
# PPM1F = target: T1, PPM1F (Homo sapiens, UniProt P49593); assay: pNPP hydrolysis phosphatase assay (selectivity panel); format: biochemical; conditions: pNPP as substrate
# T1 sequence (P49593 1-454): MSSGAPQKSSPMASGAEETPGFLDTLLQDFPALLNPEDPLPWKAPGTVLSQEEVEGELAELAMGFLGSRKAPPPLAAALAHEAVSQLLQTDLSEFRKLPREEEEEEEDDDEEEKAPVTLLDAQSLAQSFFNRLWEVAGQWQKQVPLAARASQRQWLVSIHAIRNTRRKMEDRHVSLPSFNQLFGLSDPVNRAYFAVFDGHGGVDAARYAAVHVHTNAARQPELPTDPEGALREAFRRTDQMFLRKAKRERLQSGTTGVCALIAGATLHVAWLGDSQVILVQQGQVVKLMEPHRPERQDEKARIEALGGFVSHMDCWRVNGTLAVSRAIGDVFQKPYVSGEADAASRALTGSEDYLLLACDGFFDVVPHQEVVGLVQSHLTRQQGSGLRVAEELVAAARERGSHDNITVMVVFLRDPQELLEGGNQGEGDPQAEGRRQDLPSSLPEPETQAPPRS
# Cytotoxicity = format: cell-based; conditions: low micromolar range; data not shown
# SSH1 = target: T2, SSH1 (Homo sapiens, UniProt Q8WYL5); assay: pNPP hydrolysis phosphatase assay (selectivity panel); format: biochemical; conditions: pNPP as substrate
# T2 sequence (Q8WYL5 1-1049): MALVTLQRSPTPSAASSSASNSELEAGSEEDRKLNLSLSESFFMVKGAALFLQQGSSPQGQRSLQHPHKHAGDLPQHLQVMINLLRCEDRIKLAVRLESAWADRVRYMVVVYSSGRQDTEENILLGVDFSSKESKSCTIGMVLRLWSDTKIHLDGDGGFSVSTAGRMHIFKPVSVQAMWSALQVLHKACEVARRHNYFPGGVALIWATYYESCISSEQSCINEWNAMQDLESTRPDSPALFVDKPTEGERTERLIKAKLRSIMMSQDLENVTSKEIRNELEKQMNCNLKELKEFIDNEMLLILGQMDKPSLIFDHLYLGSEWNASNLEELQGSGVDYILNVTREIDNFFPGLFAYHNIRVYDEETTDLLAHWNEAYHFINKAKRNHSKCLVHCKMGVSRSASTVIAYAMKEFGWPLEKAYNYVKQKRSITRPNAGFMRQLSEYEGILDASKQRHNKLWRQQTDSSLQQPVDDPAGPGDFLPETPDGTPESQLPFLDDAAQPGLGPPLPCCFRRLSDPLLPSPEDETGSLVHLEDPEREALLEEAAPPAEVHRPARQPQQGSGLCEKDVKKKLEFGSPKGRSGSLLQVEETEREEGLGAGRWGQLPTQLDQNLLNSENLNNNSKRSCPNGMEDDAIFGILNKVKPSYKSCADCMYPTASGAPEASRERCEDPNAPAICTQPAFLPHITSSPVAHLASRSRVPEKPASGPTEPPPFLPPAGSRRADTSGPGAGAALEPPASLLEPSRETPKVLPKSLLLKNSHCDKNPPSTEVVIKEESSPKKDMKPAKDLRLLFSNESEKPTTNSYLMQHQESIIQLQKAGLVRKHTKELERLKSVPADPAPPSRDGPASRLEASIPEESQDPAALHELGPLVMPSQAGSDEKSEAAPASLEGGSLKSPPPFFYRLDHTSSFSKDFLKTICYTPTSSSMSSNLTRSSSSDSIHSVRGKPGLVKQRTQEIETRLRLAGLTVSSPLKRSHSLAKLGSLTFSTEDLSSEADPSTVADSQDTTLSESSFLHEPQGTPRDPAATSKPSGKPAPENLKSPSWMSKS
# Protocol: The kinetic assays of PPM1B were carried out at 37°C in 0.1 M acetic acid buffer (50 mM Tris, 40 mM Mn^2+, pH 7.0). The p‐nitrophenyl phosphate (pNPP, Sigma) was used as the substrate which could be conveniently measured at 405 nm. Reactions were started by addition of pNPP to a reaction mixture containing PPM1B (0.4 μM PPM1B, final concentration) and various concentrations of HN252 and stopped by addition of 0.5 M EDTA (pH 10.0) after an appropriate time. The Km value of PPM1B towards pNPP hydrolysis (3.6 mM for pNPP) was used to determine the IC50. The IC50 values, the inhibition constant Ki and inhibition pattern were evaluated as previously described. ^18 The kinetic assays of HN252 towards to other protein phosphatases were carried out as previously described. ^19
# PPM1G = target: T3, PPM1G (Homo sapiens, UniProt O15355); assay: as above; format: biochemical; conditions: pNPP as substrate
# T3 sequence (O15355 1-546): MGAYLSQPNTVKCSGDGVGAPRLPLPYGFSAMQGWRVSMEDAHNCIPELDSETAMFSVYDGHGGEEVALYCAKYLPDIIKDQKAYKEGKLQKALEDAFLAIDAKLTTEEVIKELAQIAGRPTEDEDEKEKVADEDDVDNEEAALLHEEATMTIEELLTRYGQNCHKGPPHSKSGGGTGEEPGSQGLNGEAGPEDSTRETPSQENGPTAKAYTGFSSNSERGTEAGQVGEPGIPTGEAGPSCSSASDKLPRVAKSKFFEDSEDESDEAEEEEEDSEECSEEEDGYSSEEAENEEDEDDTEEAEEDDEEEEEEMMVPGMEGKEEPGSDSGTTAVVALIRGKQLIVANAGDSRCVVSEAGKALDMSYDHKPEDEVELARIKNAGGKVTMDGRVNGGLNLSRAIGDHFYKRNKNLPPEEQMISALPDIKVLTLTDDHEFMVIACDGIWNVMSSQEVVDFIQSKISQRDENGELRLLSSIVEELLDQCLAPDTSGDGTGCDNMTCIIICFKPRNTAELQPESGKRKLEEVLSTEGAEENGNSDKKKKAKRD
# PPM1K = target: T4, PPM1K (Homo sapiens, UniProt Q8N3J5); assay: as above; format: biochemical; conditions: pNPP as substrate
# T4 sequence (Q8N3J5 30-372): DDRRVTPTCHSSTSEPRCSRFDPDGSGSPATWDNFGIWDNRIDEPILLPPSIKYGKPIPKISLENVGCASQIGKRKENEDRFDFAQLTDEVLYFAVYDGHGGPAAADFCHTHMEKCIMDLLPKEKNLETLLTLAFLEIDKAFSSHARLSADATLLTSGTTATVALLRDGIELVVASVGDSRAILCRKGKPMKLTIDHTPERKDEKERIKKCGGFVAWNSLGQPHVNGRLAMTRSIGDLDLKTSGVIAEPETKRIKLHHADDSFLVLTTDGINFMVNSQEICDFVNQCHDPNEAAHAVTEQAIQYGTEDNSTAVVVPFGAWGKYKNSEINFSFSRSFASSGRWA
# topoisomerases = assay: Topoisomerase inhibition in vitro; format: biochemical; conditions: data not shown
compound,measurement,setting,value
Nc1cc(-c2ccc(-c3ccc(O)c(O)c3)cc2)ccc1C(=O)O [HN252],"effect on phosphorylation of AMPKα, CDK2 and p38",[1],mild effect
same,IC50,PPM1F,30.6 ± 4.05 µM
same,cytotoxicity,Cytotoxicity,no detectable cytotoxicity
same,IC50,SSH1,54.6 ± 13 µM
same,IC50,PPM1G,32.6 ± 5.54 µM
same,IC50,PPM1K,27.4 ± 3.92 µM
same,inhibition against topoisomerases,topoisomerases,no inhibition

# — article PMC7701510, “Identification of HN252 as a potent inhibitor of protein phosphatase PPM1B” (Journal of Cellular and Molecular Medicine, 2020)
